According to article PMC8113725, “Structure–activity relationship of ipglycermide binding to phosphoglycerate mutases” (The Journal of Biological Chemistry, 2021):
Like-named read-outs stand apart in the source and are kept apart here. Bridge positions count the residues as written; N and C are the ends. Square brackets hold non-standard residues; d marks the D form. Ends that are not written are not given here. Peptide text beside a SMILES is read from it. * marks the point of attachment. Nva = CCC[C@H](N)C(=O)O; NHOH = ON*

T1: B. malayi iPGM (Brugia malayi, UniProt Q4VWF8)
T1 sequence (Q4VWF8 1-515): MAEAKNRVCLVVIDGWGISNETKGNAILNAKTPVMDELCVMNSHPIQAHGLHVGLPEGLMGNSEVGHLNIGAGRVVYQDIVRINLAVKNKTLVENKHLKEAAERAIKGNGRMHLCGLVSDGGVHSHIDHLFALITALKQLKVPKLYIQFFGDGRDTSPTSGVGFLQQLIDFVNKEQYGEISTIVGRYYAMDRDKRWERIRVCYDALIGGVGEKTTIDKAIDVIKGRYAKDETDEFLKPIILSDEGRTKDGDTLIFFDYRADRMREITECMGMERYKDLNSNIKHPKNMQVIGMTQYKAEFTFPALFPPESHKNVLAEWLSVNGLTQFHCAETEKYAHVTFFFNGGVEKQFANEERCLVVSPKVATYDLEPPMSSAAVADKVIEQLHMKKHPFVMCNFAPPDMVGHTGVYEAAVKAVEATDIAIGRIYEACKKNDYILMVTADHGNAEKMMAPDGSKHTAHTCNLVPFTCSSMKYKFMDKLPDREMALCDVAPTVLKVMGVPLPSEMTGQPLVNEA

T2: Ce-2 (synthetic construct, thioether N-8)
T2 chain: {CH2CO}-[dY]DYPGDYCYLYGTC

T3: Ce-1 NHOH (synthetic construct, thioether N-8; SMILES …)
T3 chain: {CH2CO}-[dY]DYPGDHCYLYGT-{NHOH}

T4: Ce-2 Thr13Ser (synthetic construct, thioether N-8)
T4 chain: {CH2CO}-[dY]DYPGDYCYLYGSC

B1: iPGM (protein)
chain: MLVSKKPMVLVILDGYGYREEQQDNAIFSAKTPVMDALWANRPHTLIDASGLEVGLPDRQMGNSEVGHVNLGAGRIVYQDLTRLDVEIKDRAFFANPVLTGAVDKAKNAGKAVHIMGLLSAGGVHSHEDHIMAMVELAAERGAEKIYLHAFLDGRDTPPRSAESSLKKFEEKFAALGKGRVASIIGRYYAMDRDNRWDRVEKAYDLLTLAQGEFQADTAVAGLQAAYARDENDEFVKATVIRAEGQPDAAMEDGDALIFMNFRADRAREITRAFVNADFDGFARKKVVNVDFVMLTEYAADIKTAVAYPPASLVNTFGEWMAKNDKTQLRISETEKYAHVTFFFNGGVEESFKGEDRILINSPKVATYDLQPEMSSAELTEKLVAAIKSGKYDTIICNYPNGDMVGHTGVMEAAVKAVEALDHCVEEVAKAVESVGGQLLITADHGNAEQMRDPATGQAHTAHTNLPVPLIYVGDKNVKAVEGGKLSDIAPTMLSLMGMEIPQEMTGKPLFIVE

Columns and labels:
C. elegans iPGM = C. elegans iPGM (Caenorhabditis elegans, UniProt G5EFZ1); experiment: SPR binding kinetics and saturation binding, biotinylated iPGM on Biotin CAPture chip (Biacore S200)
B. malayi iPGM = molecular target: T1, B. malayi iPGM; experiment: biochemical; type: binding; conditions: for Kd: Supplementary Table 5, SPR, B.m. iPGM, unit inferred
E. coli iPGM [1] = molecular target: T5, E. coli iPGM (Escherichia coli, UniProt P37689); experiment: biochemical; conditions: […]
E. coli iPGM [2] = molecular target: T5, E. coli iPGM; experiment: SPR binding kinetics and saturation binding, biotinylated iPGM on Biotin CAPture chip (Biacore S200); conditions: for koff / kon: LoQ = limit of quantitation
D. immitis iPGM = D. immitis iPGM (Dirofilaria immitis, UniProt F4ZE01); experiment: biochemical
Ce-2 = molecular target: T2, Ce-2; experiment: SPR
Ce-1 NHOH = molecular target: T3, Ce-1 NHOH; experiment: SPR
Ce-2 Thr13Ser = molecular target: T4, Ce-2 Thr13Ser; experiment: SPR
[3] = Supplementary Table 5, SPR, E.c. iPGM
[4] = Supplementary Table 5, SPR, E.c. iPGM, unit inferred
[5] = SPR, 25 °C, global fit to 1:1 binding model

Molecule	Kd (C. elegans iPGM) [nM]	koff (C. elegans iPGM) [s⁻¹]	kon (C. elegans iPGM) [M⁻¹ s⁻¹]	koff (B. malayi iPGM) [s⁻¹]	kon (B. malayi iPGM) [M⁻¹ s⁻¹]	Kd (B. malayi iPGM) [nM]	IC50 (E. coli iPGM [1]) [nM]	koff (E. coli iPGM [2]; [3]) [s⁻¹]	kon (E. coli iPGM [2]; [3]) [M⁻¹ s⁻¹]	Kd (E. coli iPGM [2]; [4]) [nM]	IC50 (D. immitis iPGM; Di iPGM Ave IC50 (M)) [M]	IC50 (D. immitis iPGM; IC50 (M)) [M]	further results
CC(C)C[C@H](NC(=O)[C@H](Cc1ccc(O)cc1)NC(=O)[C@@H]1CSCC(=O)N[C@H](Cc2ccc(O)cc2)C(=O)N[C@@H](CC(=O)O)C(=O)N[C@@H](Cc2ccc(O)cc2)C(=O)N[C@@H](C(C)C)C(=O)NCC(=O)N[C@@H](CC(=O)O)C(=O)N[C@@H](Cc2ccc(O)cc2)C(=O)N1)C(=O)N[C@@H](Cc1ccc(O)cc1)C(=O)NCC(=O)N[C@H](C(=O)N[C@@H](CS)C(N)=O)[C@@H](C)O [Ce-2 P4V]	0.0668	1.15e-05	173000	7.52e-05	194000	0.407	8960	0.000272	37300	7.29	2.14e-09	–	–
CC(C)C[C@H](NC(=O)[C@H](Cc1ccc(O)cc1)NC(=O)[C@@H]1CSCC(=O)N[C@H](Cc2ccc(O)cc2)C(=O)N[C@@H](CC(=O)O)C(=O)N[C@@H](Cc2ccc(O)cc2)C(=O)N2CCC[C@H]2C(=O)NCC(=O)N[C@@H](CC(=O)O)C(=O)N[C@@H](Cc2ccc(O)cc2)C(=O)N1)C(=O)N[C@@H](Cc1ccc(O)cc1)C(=O)NCC(=O)NCC(=O)N[C@@H](CS)C(N)=O [Ce-2 T13G]	0.0433	5.77e-05	1.32e+06	6.11e-05	1.19e+06	0.0493	99.4	0.00133	299000	10.8	1.08e-09	9.2e-10	–
CCC[C@@H]1NC(=O)[C@@H](Cc2ccc(O)cc2)NC(=O)CSC[C@@H](C(=O)N[C@@H](Cc2ccc(O)cc2)C(=O)N[C@@H](CC(C)C)C(=O)N[C@@H](Cc2ccc(O)cc2)C(=O)NCC(=O)N[C@H](C(=O)N[C@@H](CS)C(N)=O)[C@@H](C)O)NC(=O)[C@H](Cc2ccc(O)cc2)NC(=O)[C@H](CC(=O)O)NC(=O)CNC(=O)[C@@H]2CCCN2C(=O)[C@H](Cc2ccc(O)cc2)NC1=O [Ce-2 D2Nva] ({CH2CO}-[dY][Nva]YPGDYCYLYGTC-NH2; thioether N-8)	0.0257	4.98e-05	1.94e+06	0.000143	376000	0.378	8730	0.00195	132000	47.1	1.51e-09	1.46e-09	–
CC(C)C[C@H](NC(=O)[C@H](Cc1ccc(O)cc1)NC(=O)[C@@H]1CSCC(=O)N[C@H](Cc2ccc(O)cc2)C(=O)N[C@@H](CC(=O)O)C(=O)N[C@@H](Cc2ccc(O)cc2)C(=O)N2CCC[C@H]2C(=O)NCC(=O)N[C@@H](CC(=O)O)C(=O)N[C@@H](Cc2c[nH]cn2)C(=O)N1)C(=O)N[C@@H](Cc1ccc(O)cc1)C(=O)NCC(=O)N[C@H](C(=O)NO)[C@@H](C)O [Ce-1 NHOH]	0.109	0.000171	1.86e+06	0.00148	203000	11.5	8970	0.914	181000	5140	2.92e-09	–	koff (C. elegans iPGM; [5]): 7.8e-05 s⁻¹; kon (C. elegans iPGM; [5]): 1.9e+06 M⁻¹ s⁻¹; koff (B. malayi iPGM; [5]): 0.0015 s⁻¹; kon (B. malayi iPGM; [5]): 200000 M⁻¹ s⁻¹; t½ (E. coli iPGM [2]; SPR, dissociation half-life): ≤1 s; Kd (E. coli iPGM [2]; SPR, Req hyperbolic fit where steady state reached, else koff/kon): 5000 nM
CC(C)C[C@H](NC(=O)[C@H](Cc1ccc(O)cc1)NC(=O)[C@@H]1CSCC(=O)N[C@H](Cc2ccc(O)cc2)C(=O)N[C@@H](CC(=O)O)C(=O)N[C@@H](Cc2ccc(O)cc2)C(=O)N2CCC[C@H]2C(=O)NCC(=O)N[C@@H](CC(=O)O)C(=O)N[C@@H](Cc2ccc(O)cc2)C(=O)N1)C(=O)N[C@@H](Cc1ccc(O)cc1)C(=O)NCC(=O)NCC(=O)N[C@@H](Cc1c[nH]cn1)C(N)=O [Ce-2 T13G, C14H]	–	–	–	–	–	–	12700	–	–	–	1.12e-07	–	–
CC(C)C[C@H](NC(=O)[C@H](Cc1ccccc1)NC(=O)[C@@H]1CSCC(=O)N[C@H](Cc2ccc(O)cc2)C(=O)N[C@@H](CC(=O)O)C(=O)N[C@@H](Cc2ccc(O)cc2)C(=O)N2CCC[C@H]2C(=O)NCC(=O)N[C@@H](CC(=O)O)C(=O)N[C@@H](Cc2ccc(O)cc2)C(=O)N1)C(=O)N[C@@H](Cc1ccc(O)cc1)C(=O)NCC(=O)N[C@H](C(=O)N[C@@H](CS)C(N)=O)[C@@H](C)O [Ce-2 Y9F] ({CH2CO}-[dY]DYPGDYCFLYGTC-NH2; thioether N-8)	–	–	–	–	–	–	815	–	–	–	2.69e-09	2.79e-09	–
CC(C)C[C@H](NC(=O)[C@H](Cc1ccc(O)cc1)NC(=O)[C@@H]1CSCC(=O)N[C@H](Cc2ccc(O)cc2)C(=O)N[C@@H](CC(=O)O)C(=O)N[C@@H](Cc2ccc(O)cc2)C(=O)N2CCC[C@H]2C(=O)NCC(=O)N[C@@H](CC(=O)O)C(=O)N[C@@H](Cc2ccccc2)C(=O)N1)C(=O)N[C@@H](Cc1ccc(O)cc1)C(=O)NCC(=O)N[C@H](C(=O)N[C@@H](CS)C(N)=O)[C@@H](C)O [Ce-2 Y7F]	–	–	–	–	–	–	1170	–	–	–	1.73e-09	1.78e-09	–
CC[C@H](C)[C@@H]1NC(=O)[C@H](Cc2ccc(O)cc2)NC(=O)[C@H](CC(=O)O)NC(=O)[C@@H](Cc2ccc(O)cc2)NC(=O)CSC[C@@H](C(=O)N[C@@H](Cc2ccc(O)cc2)C(=O)N[C@@H](CC(C)C)C(=O)N[C@@H](Cc2ccc(O)cc2)C(N)=O)NC(=O)[C@H](Cc2ccc(O)cc2)NC(=O)[C@H](CC(=O)O)NC(=O)CNC1=O [Ce-2d P4I]	–	–	–	–	–	–	21900	–	–	–	2.21e-07	–	–
CC(C)C[C@H](NC(=O)[C@H](Cc1ccc(O)cc1)NC(=O)[C@@H]1CSCC(=O)N[C@H](Cc2ccc(O)cc2)C(=O)N[C@@H](CC(=O)O)C(=O)N[C@@H](Cc2ccc(O)cc2)C(=O)N2CCC[C@H]2C(=O)NCC(=O)N[C@@H](CC(=O)O)C(=O)N[C@@H](Cc2ccc(O)cc2)C(=O)N1)C(=O)N[C@@H](Cc1ccc(O)cc1)C(=O)NCCCC(=O)N[C@@H](CS)C(N)=O [Ce-2 [12-13]GABA]	–	–	–	–	–	–	2980	–	–	–	2.85e-09	–	–
B1	–	–	–	–	–	–	–	–	–	–	–	–	Kd (Ce-2): 69 nM; Kd (Ce-1 NHOH): 5000 nM; Kd (Ce-2 Thr13Ser): 1.3 nM
